Reference: US4565865A, “Phospholipid carbamates” (Takeda Chemical Industries, Ltd., priority 1980, dated 1986)
≈ marks a conversion by molar mass, not a printed value. Like-named read-outs stand apart in the source and are kept apart here.

How the values were obtained:
Format in all cases: cell-based
Cryptococcus neoformans = experiment: Antifungal activity, paper disc zone of inhibition; settings: 37° C., 2 days, agar, 8 mm paper disc, 2 mg/ml solution; for zone of inhibition at 2000 µg/mL: Cryptococcus neoformans, 48 h
Experimental: For the antifungal activity data given in Table 1, Cryptococcus neoformans is used as the test microorganism and incubated at 37° C. for 2 days in an agar medium with a paper disc (8 mm in diameter) immersed in an aqueous 2 mg/ml solution of a test compound and air-dried as placed on said medium, and the zone of inhibition is measured. The judgement criteria are as follows: "-" means less than 9 mm in inhibition zone diameter, "±" means 9-11 mm, "+" means 12-20 mm, and "++" means more than 20 mm.

Tetrahymena pyriformis W = experiment: Antiprotozoal activity, MIC by serial broth dilution technique; settings: 28° C., 44-48 hours, tryptose peptone medium, pH 7.0; for MIC: Tetrahymena pyriformis
[1] = test system: mouse spontaneous myelolid leukemia M1 cells (resistant clone); experiment: Growth inhibition (GD50) of mouse leukemia M1 cells
[2] = test system: Rauscher virus-induced promyelocytic leukemia cells R 453; experiment: Growth inhibition (GD50) of Rauscher virus-induced leukemia R 453 cells; settings: Mus musculus
Cochliobolus miyabeanus = experiment: Antifungal activity, MIC by serial dilution in agar; settings: Bipolaris oryzae
Brewer's yeast = experiment: as above
Botrytis cinerea = experiment: as above; settings: 1% glucose bouillon agar
Experimental: (§1) For the antifungal activity data shown in Table 2, various typical plant-disease-causing fungi are used as the test fungi and the minimum inhibitory concentration (MIC) are determined by the serial dilution technique using a 1% glucose bouillon agar medium.

Red yeast = experiment: as above; settings: 1% glucose bouillon agar
Experimental: as §1

Penicillium = experiment: as above; settings: 1% glucose bouillon agar
Experimental: as §1

Gibberella fujikuroi = experiment: as above; settings: Fusarium fujikuroi, 1% glucose bouillon agar
Experimental: as §1

Aspergillus = experiment: as above; settings: 1% glucose bouillon agar
Experimental: as §1

Leptosphaeria salvinii = experiment: as above; settings: Nakataea oryzae
[3] = test system: human promyelocytic leukemia cells HL-60; experiment: Growth inhibition (GD50) of human promyelocytic leukemia HL-60 cells
Pyricularia oryzae = experiment: microbe, parasite or virus in culture
[4] = four successive population doublings of untreated cells, trypan blue, mean of four separate experiments

Row | Compound | zone of inhibition at 2000 µg/mL (Cryptococcus neoformans) | MIC (Tetrahymena pyriformis W) | MIC (Cochliobolus miyabeanus) | MIC (Brewer's yeast) | MIC (Botrytis cinerea) | MIC (Red yeast) | MIC (Penicillium) | MIC (Gibberella fujikuroi) | MIC (Aspergillus) | MIC (Leptosphaeria salvinii) | MIC (Pyricularia oryzae) | IC50 [3, 4] | other results
1 | 3-[8,11,14(Z,Z,Z)-Heptadecatrienylcarbamoyloxy]propyl 2-aminoethyl phosphate [Example 18] | – | – | – | – | – | – | – | – | – | – | – | – | Cryptococcus neoformans Zone of inhibition (Cryptococcus neoformans): + (12-20 mm); Tetrahymena pyriformis W MIC (Tetrahymena pyriformis W): 2 to 4 µg/mL
2 | CCCCCCCCCCCCCCCCCNC(=O)OCCCOP(=O)([O-])OCC[N+](C)(C)C [Example 4, 3-(N-n-Heptadecylcarbamoyloxy)propyl 2-trimethylammonioethyl phosphate] | 12 to 20 mm | 1 to 2 µg/mL | > 100 µg/mL | > 100 µg/mL | 12.5 µg/mL | > 100 µg/mL | > 100 µg/mL | > 100 µg/mL | > 100 µg/mL | 50 µg/mL | 6.25 µg/mL | – | IC50 [1]: 3 to 4 µg/mL; IC50 [2]: 2 to 3 µg/mL; IC50 [3]: 1 µg/mL
3 | COC1=C(OC)C(=O)C(CCCCCCCCCNC(=O)OCCCOP(=O)([O-])OCC[N+](C)(C)C)=C(C)C1=O [Example 8, 3-[N-(9-(2,3-Dimethoxy-6-methyl-1,4-benzoquinon-5-yl)nonyl)carbamoyloxy]propyl 2-trimethylammonioethyl phosphate] | – | 40 µg/mL | – | – | – | – | – | – | – | – | – | – | –
4 | CCCCCCCCCCCCCCCCCCNC(=O)OCC(COP(=O)([O-])OCC[N+](C)(C)C)OC (stereo not drawn) [Example 11, 3-(N-n-Octadecylcarbamoyloxy)-2-methoxypropyl 2-trimethylammonioethyl phosphate] | 12 to 20 mm | 2 to 4 µg/mL | – | – | – | – | – | – | – | – | – | 0.6 µg/mL | –
5 | CCCCCCCCCCCCCCCCCCNC(=O)OCC(COP(=O)([O-])OCC[n+]1ccccc1)OC (stereo not drawn) [Example 12, 3-(N-n-Octadecylcarbamoyloxy)-2-methoxypropyl 2-pyridinioethyl phosphate] | 12 to 20 mm | 4 µg/mL | – | – | – | – | – | – | – | – | – | 1 µg/mL | –
6 | CCCCCCCCCCCCCCCCCCNC(=O)OCC(COP(=O)([O-])OCC[n+]1ccsc1)OC (stereo not drawn) [Example 13, 3-(N-n-Octadecylcarbamoyloxy)-2-methoxypropyl 2-thiazolioethyl phosphate] | 12 to 20 mm | 2 to 4 µg/mL | – | – | – | – | – | – | – | – | – | – | –
7 | CCCCCCCCCCCCCCCCCCNC(=O)OCCOP(=O)([O-])OCC[N+](C)(C)C [Example 15, 2-(N-Octadecylcarbamoyloxy)ethyl 2-trimethylammonioethyl phosphate] | 12 to 20 mm | 1 to 2 µg/mL | – | – | – | – | – | – | – | – | – | 2.3 µg/mL | –
8 | CCC=CCC=CCC=CCCCCCCCNC(=O)OCCCOP(=O)([O-])OCC[N+](C)(C)C [Example 17, 3-(N-8,11,14-Heptadecatrienylcarbamoyloxy)propyl 2-trimethylammonioethyl phosphate] | > 20 mm | ≤ 1 µg/mL | 25 µg/mL | 100 µg/mL | 12.5 µg/mL | 100 µg/mL | 50 µg/mL | 50 µg/mL | 50 µg/mL | 50 µg/mL | 25 µg/mL | 2 µg/mL | –
9 | CCCCC/C=C\C/C=C\CCCCCCCNC(=O)OCCCOP(=O)([O-])OCC[N+](C)(C)C [Example 20] | 12 to 20 mm | 2 µg/mL (≈ 3.86 µM) | – | – | – | – | – | – | – | – | – | 4.8 µg/mL (≈ 9.25 µM) | –
10 | CCCCC/C=C\C/C=C\CCCCCCCNC(=O)OCCOP(=O)([O-])OCC[N+](C)(C)C [Example 21, 2-[8,11(Z,Z)-Heptadecadienylcarbamoyloxy]ethyl 2-trimethylammonioethyl phosphate] | 9 to 11 mm | 2 µg/mL | – | – | – | – | – | – | – | – | – | – | –
11 | CCCCC/C=C\C/C=C\CCCCCCCNC(=O)OCCCOP(=O)(O)OCCN [Example 22, 3-[8,11(Z,Z)-Heptadecadienylcarbamoyloxy]propyl 2-aminoethyl phosphate] | 9 to 11 mm | ≤ 1 µg/mL | – | – | – | – | – | – | – | – | – | 4.3 µg/mL | –
12 | CCCCCCCCCCCCCNC(=O)OCCCOP(=O)([O-])OCC[N+](C)(C)C [Example 23, 3-(N-Tridecylcarbamoyloxy)propyl 2-trimethylammonioethyl phosphate] | 12 to 20 mm | ≤ 0.1 µg/mL | 12.5 µg/mL | 12.5 µg/mL | 6.25 µg/mL | 12.5 µg/mL | 12.5 µg/mL | 25 µg/mL | 12.5 µg/mL | 12.5 µg/mL | 6.25 µg/mL | – | –
13 | CCCCCCCCCCCCCCNC(=O)OCC(COP(=O)(O)OCCN)OC (stereo not drawn) [Example 25, 3-(N-Tetradecylcarbamoyloxy)-2-methoxypropyl 2-aminoethyl phosphate] | > 20 mm | ≤ 1 µg/mL | > 100 µg/mL | 25 µg/mL | 6.25 µg/mL | 50 µg/mL | 25 µg/mL | 50 µg/mL | 25 µg/mL | 100 µg/mL | 6.25 µg/mL | – | IC50 [3]: 2 to 3 µg/mL
14 | CCCCCCCCCCCCCCNC(=O)OCC(COP(=O)([O-])OCC[N+](C)(C)C)OC (stereo not drawn) [Example 26, 3-(N-Tetradecylcarbamoyloxy)-2-methoxypropyl 2-trimethylammonioethyl phosphate] | 12 to 20 mm | 0.2 µg/mL | 12.5 µg/mL | – | 3.12 µg/mL | 25 µg/mL | 12.5 µg/mL | 12.5 µg/mL | 12.5 µg/mL | – | 3.12 µg/mL | – | MIC (Brewer's yeast; Brewer's yeast, 1% glucose bouillon agar, read-out: MIC): 6.25 µg/mL; MIC (Leptosphaeria salvinii; Leptosphaeria salvinii, 1% glucose bouillon agar, read-out: MIC): 6.25 µg/mL; IC50 [3]: 2 to 3 µg/mL
15 | CCCCCCCCCCNC(=O)OCC(COP(=O)(O)OCCN)OC (stereo not drawn) [Example 28, 3-(N-Decylcarbamoyloxy)-2-methoxypropyl 2-aminoethyl phosphate] | < 9 mm | 2 µg/mL | – | – | – | – | – | – | – | – | – | – | –
16 | CCCCCCCCCCNC(=O)OCC(COP(=O)([O-])OCC[N+](C)(C)C)OC (stereo not drawn) [Example 29, 3-(N-Decylcarbamoyloxy)-2-methoxypropyl 2-trimethylammonioethyl phosphate] | 9 to 11 mm | 2 µg/mL | – | – | – | – | – | – | – | – | – | – | –
17 | CCCCCCCCCCCCNC(=O)OCCCOP(=O)([O-])OCC[N+](C)(C)C [Example 31, 3-N-Dodecylcarbamoyloxypropyl 2-trimethylammonioethyl phosphate] | 12 to 20 mm | ≤ 1 µg/mL | 12.5 µg/mL | 12.5 µg/mL | 12.5 µg/mL | 25 µg/mL | 12.5 µg/mL | 50 µg/mL | 12.5 µg/mL | 25 µg/mL | 12.5 µg/mL | – | –
18 | CCCCCCCCCCCCNC(=O)OCCCOP(=O)(O)OCCN [Example 32] | 12 to 20 mm | ≤ 1 µg/mL | – | – | – | – | – | – | – | – | – | – | –
19 | CCCCCCCCCCCCCCNC(=O)OCCCOP(=O)([O-])OCC[N+](C)(C)C [Example 36, 3-N-Tetradecylcarbamoyloxypropyl 2-trimethylammonioethyl phosphate] | > 20 mm | ≤ 1 µg/mL | 25 µg/mL | 6.25 µg/mL | 12.5 µg/mL | 25 µg/mL | 12.5 µg/mL | 12.5 µg/mL | 12.5 µg/mL | 6.25 µg/mL | 3.12 µg/mL | – | –
